Laboratory results from patent US6235742A, “5-substituted pyrazolo[4,3-D]pyrimidin-7-ones” (Pfizer Inc., priority 1997, dated 2001).
“Also recorded” adds a separate entry of the source. Like-named read-outs stand apart in the source and are kept apart here.

Tests used:
Type in all cases: biochemical
[1] = test system: PDE1 (calcium/calmodulin (Ca/CAM)-dependent PDE); assay: PDE1 inhibition, rat kidney
Text: (§1) In vitro PDE inhibitory activities against cyclic guanosine 3', 5'-monophosphate (cGMP) and cyclic adenosine 3', 5'-monophosphate (cAMP) phosphodiesterases can be determined by measurement of their IC50 inhibition of enzyme activity.
(§2) The required PDE enzymes are isolated from a variety of sources, including rat kidney, human corpus cavernosum, human platelets, rabbit platelets, human cardiac ventricle, human skeletal muscle and bovine retina, essentially by the method of W J Thompson and M M Appleman (Biochem, 1971, 10, 311).
(§3) For example, for some of the studies the calcium/calmodulin (Ca/CAM)-dependent PDE (PDE1) is obtained from either human cardiac ventricle or rat kidney. The cGMP-stimulated PDE (PDE2), the cGMP-specificPDE (PDE5) and the cGMP-inhibited cAMP PDE (PDE3) are obtained from human corpus cavernosum tissue. PDE5 is also obtained from human platelets or rabbit platelets by techniques usual in the art. The cAMP-specific PDE (PDE4) is obtained from rat kidney. The photoreceptor PDE (PDE6) is obtained from bovine retina.
(§4) Assays are performed using a modification of the "batch" method of W J Thompson et al (Biochem, 1979, 18, 5228).

PDE5 [2] = biological target: T1, PDE5 (Oryctolagus cuniculus, UniProt G1SX67); assay: PDE5 inhibition, rabbit platelet
T1 construct: PDE5 is also obtained from human platelets or rabbit platelets; from tissue; host or cells: rabbit platelets
Text: as §1, §2, §3, §4

PDE5 [3] = biological target: T2, PDE5 (Homo sapiens, UniProt O76074); assay: PDE5 inhibition, human platelet; conditions: comparative study
T2 construct: PDE5 is also obtained from human platelets or rabbit platelets; from tissue; host or cells: human platelets
Text: as §1, §2, §3, §4

Ca/CAM-dependent PDE1 = assay: PDE1 inhibition stated in words (source not given); conditions: for potency and selectivity as PDE1 inhibitor: summary in words
Text: as §1, §2, §3, §4

[4] = biological target: T3, PDE1 (calcium/calmodulin (Ca/CAM)-dependent PDE) (Homo sapiens, UniProt Q14123); assay: PDE inhibition, PDE type 1 from human cardiac ventricle; conditions: PDE type 1, human cardiac ventricle
T3 construct: obtained from either human cardiac ventricle or rat kidney; from tissue; host or cells: human cardiac ventricle
Text: as §1, §2, §3, §4

[5] = biological target: T4, PDE2 (cGMP-stimulated PDE) (Homo sapiens, UniProt O00408); assay: PDE inhibition, PDE type 2 from human corpus cavernosum; conditions: PDE type 2, human corpus cavernosum
T4 construct: are obtained from human corpus cavernosum tissue; from tissue; host or cells: human corpus cavernosum
Text: as §1, §2, §3, §4

[6] = test system: PDE3 (cGMP-inhibited cAMP PDE); assay: PDE inhibition, PDE type 3 from human corpus cavernosum; conditions: PDE type 3, human corpus cavernosum
Text: as §1, §2, §3, §4

PDE4 (cAMP-specific PDE) = assay: PDE inhibition, PDE type 4 from rat kidney; conditions: PDE type 4, rat kidney
Text: as §1, §2, §3, §4

PDE5 (cGMP-specific PDE) = biological target: T5, PDE5 (cGMP-specific PDE) (Homo sapiens, UniProt O76074); assay: PDE inhibition, PDE type 5 from human corpus cavernosum; conditions: PDE type 5, human corpus cavernosum
T5 construct: are obtained from human corpus cavernosum tissue; from tissue; host or cells: human corpus cavernosum
Text: as §1, §2, §3, §4

PDE6 (photoreceptor PDE) = biological target: T6, PDE6 (photoreceptor PDE) (Bos taurus, UniProt P11541+P23439); assay: PDE inhibition, PDE type 6 from bovine retina; conditions: PDE type 6, bovine retina
T6 construct: The photoreceptor PDE (PDE6) is obtained from bovine retina; from tissue; host or cells: bovine retina
T6 sequence (P11541 2-856 limits assumed): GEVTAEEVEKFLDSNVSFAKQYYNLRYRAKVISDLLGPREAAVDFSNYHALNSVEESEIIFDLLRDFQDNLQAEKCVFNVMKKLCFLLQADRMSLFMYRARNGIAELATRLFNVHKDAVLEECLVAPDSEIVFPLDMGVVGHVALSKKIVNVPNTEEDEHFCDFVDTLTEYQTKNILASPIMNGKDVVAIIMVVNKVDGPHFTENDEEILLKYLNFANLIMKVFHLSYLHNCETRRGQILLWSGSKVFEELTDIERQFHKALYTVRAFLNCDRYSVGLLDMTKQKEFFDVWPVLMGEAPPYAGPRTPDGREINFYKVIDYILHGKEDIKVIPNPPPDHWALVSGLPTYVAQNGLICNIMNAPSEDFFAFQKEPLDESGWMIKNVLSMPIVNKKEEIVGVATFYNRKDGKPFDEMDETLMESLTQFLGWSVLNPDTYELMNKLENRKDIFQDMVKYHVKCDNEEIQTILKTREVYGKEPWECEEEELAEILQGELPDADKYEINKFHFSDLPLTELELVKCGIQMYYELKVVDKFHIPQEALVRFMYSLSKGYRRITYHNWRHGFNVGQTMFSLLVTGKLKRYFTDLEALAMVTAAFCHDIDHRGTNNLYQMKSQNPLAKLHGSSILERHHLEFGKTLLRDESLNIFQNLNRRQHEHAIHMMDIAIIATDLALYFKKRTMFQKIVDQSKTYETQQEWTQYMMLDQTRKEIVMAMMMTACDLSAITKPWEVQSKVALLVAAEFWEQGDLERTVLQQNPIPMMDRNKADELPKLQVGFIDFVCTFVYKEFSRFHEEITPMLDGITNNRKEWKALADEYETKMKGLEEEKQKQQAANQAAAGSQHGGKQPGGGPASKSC
T6 sequence (P23439 2-850 limits assumed): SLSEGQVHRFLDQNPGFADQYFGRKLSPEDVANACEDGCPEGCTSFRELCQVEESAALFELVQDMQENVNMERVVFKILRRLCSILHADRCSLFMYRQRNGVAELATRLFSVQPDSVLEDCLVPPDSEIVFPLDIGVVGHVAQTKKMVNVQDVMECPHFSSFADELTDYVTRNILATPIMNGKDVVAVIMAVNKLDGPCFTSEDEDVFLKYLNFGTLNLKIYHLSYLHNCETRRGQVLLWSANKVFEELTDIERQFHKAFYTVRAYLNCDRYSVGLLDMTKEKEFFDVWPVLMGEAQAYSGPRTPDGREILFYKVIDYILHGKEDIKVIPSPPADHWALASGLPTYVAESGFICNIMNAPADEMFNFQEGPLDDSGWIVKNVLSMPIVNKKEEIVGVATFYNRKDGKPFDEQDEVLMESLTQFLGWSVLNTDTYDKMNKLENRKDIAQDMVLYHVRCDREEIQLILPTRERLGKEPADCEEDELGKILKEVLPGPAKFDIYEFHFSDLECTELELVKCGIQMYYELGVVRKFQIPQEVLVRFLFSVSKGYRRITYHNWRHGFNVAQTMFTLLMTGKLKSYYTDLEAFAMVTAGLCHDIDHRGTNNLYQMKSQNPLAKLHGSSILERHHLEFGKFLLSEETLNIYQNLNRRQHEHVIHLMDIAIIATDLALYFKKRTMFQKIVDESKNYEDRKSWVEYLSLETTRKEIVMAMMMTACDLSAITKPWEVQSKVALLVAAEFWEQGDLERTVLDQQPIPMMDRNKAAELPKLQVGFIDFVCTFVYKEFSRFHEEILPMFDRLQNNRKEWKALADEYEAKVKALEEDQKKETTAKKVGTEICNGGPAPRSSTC
Text: as §1, §2, §3, §4

[7] = rat kidney, comparative study, cGMP, read-out: cGMP / PDE1 INHIBITION - IC50 Values
[8] = rabbit platelet, comparative study, read-out: PDE5 INHIBITION - IC50 Values
[9] = further studies, IC50 per protocol, read-out: RAT KIDNEY PDE1
[10] = further studies, IC50 per protocol, read-out: RABBIT PLATELET PDE5

T3 sequence (Q14123 1-634 isoform Q14123-2): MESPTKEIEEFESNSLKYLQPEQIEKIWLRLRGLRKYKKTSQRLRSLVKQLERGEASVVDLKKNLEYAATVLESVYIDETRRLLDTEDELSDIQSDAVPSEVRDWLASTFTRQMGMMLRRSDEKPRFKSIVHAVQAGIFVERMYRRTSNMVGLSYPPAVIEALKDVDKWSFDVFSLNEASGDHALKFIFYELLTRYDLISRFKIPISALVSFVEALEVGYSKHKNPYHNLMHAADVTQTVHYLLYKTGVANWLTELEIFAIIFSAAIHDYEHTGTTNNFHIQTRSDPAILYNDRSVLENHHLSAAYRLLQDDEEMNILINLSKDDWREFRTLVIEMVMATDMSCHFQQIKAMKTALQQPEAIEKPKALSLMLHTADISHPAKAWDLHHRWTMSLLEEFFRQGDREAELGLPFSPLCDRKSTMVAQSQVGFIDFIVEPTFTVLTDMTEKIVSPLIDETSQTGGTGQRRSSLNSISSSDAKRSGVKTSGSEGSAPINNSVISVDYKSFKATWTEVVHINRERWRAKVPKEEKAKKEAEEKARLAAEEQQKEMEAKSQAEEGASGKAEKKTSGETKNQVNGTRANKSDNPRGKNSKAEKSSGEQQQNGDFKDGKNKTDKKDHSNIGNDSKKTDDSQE
T4 sequence (O00408 whole entry): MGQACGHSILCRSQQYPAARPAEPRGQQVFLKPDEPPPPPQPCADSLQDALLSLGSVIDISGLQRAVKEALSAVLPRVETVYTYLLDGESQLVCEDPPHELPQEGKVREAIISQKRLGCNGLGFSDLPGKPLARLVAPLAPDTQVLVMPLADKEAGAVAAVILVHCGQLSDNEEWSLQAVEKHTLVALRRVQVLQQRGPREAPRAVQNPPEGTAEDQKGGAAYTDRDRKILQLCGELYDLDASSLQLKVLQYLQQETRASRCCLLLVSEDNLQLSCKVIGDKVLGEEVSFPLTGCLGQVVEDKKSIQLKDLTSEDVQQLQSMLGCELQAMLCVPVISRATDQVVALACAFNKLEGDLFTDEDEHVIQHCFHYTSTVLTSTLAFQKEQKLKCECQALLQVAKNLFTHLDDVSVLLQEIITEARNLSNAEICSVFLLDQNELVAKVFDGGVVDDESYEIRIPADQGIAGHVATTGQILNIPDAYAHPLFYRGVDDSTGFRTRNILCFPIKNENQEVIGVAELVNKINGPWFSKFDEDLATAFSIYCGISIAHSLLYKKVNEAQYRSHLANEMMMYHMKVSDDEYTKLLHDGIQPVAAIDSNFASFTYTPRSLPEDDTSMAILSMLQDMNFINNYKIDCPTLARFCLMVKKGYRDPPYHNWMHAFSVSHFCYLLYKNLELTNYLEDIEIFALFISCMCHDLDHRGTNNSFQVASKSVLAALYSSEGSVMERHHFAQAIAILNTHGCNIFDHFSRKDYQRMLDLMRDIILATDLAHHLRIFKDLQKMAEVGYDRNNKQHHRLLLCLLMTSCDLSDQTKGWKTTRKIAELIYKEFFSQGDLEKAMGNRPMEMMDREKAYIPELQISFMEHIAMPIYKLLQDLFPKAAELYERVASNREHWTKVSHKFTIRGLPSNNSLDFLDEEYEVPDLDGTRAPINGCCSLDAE

Structure (SMILES)	IC50 [1, 7] [nM]	IC50 (PDE5 [2]; [8]) [nM]	IC50 (PDE5 [3]) [nM]	PDE1 inhibition (Ca/CAM-dependent PDE1; statement in words)	IC50 [1, 9] [nM]	IC50 (PDE5 [2]; [10]) [nM]	potency and selectivity as PDE1 inhibitor (Ca/CAM-dependent PDE1)	IC50 [4] [nM]	IC50 [5] [nM]	IC50 [6] [nM]	IC50 (PDE4 (cAMP-specific PDE)) [nM]	IC50 (PDE5 (cGMP-specific PDE)) [nM]	IC50 (PDE6 (photoreceptor PDE)) [nM]
Cc1nn(C)c2c(=O)[nH]c(Cc3ccc(N(C)C)cc3)nc12 ['188 compound, reference compound]	9900	2800	3200	not as effective at such low concentrations; also recorded: at least a weak PDE1 inhibitor	–	–	–	–	–	–	–	–	–
CCCc1nn(C)c2c(=O)[nH]c(Cc3ccc(NS(=O)(=O)c4ccccc4)cc3)nc12 [Example 37]	–	–	–	–	94	6400	potent and selective PDE1 inhibitors	–	–	–	–	–	–
CCCc1nn(C)c2c(=O)[nH]c(Cc3ccccc3NS(C)(=O)=O)nc12 [Example 36]	–	–	–	–	59	1800	potent and selective PDE1 inhibitors	–	–	–	–	–	–
CCCc1nn(C)c2c(=O)[nH]c(Cc3ccc(N(CC)CC)cc3)nc12 [Example 50, 5-[4-(diethylamino)benzyl]-1-methyl-3-propyl-6,7-dihydro-1H-pyrazolo[4,3-d]pyrimidin-7-one]	37	6700	2700	–	–	–	potent and selective PDE1 inhibitors	38	1990	3940	23000	2490	2030
